Target: T1, rat mGlu2 receptor (Rattus norvegicus, UniProt P31421)
T1 construct: expressed in transfected cells; host or cells: CHO cells, stably transfected with pcD1mGR2 (pcDNA I-amp), G-418 selected; membranes used
Assay: [3H]-LY354740 binding on mGlu2 transfected CHO cell membranes

T1 sequence (P31421 19-872): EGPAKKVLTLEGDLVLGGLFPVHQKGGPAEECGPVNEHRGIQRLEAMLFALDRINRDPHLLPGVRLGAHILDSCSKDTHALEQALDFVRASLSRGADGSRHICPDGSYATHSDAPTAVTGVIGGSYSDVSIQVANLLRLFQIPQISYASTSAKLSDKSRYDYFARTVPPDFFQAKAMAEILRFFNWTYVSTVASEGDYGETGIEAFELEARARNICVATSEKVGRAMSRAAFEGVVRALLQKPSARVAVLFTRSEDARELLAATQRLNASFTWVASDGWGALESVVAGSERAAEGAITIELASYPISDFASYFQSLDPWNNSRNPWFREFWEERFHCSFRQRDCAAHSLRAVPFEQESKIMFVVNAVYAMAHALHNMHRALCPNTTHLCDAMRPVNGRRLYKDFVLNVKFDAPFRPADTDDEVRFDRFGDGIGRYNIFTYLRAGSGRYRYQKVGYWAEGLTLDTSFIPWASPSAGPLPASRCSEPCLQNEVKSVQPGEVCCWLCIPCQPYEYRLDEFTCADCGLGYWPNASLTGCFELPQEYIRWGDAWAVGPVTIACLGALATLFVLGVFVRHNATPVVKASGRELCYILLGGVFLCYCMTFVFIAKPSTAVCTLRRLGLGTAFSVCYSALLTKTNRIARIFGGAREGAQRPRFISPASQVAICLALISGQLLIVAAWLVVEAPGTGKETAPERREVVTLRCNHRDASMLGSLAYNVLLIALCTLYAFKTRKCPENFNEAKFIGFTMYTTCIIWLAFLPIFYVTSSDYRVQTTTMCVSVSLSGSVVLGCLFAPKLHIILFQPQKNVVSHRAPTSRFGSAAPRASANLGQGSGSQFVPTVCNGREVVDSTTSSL

Compound	Ki [nM]
N#Cc1cccc(C2=Nc3cc(Cl)c(C#Cc4ccccc4)cc3NC(=O)C2)c1 [Example 3, 3-(8-Chloro-4-oxo-7-phenylethynyl-4,5-dihydro-3H-benzo[b][1,4]diazepin-2-yl)-benzonitrile]	28

System: not given
Assay: not given

Compound	melting point
COCCOc1cc2c(cc1-c1ccc(F)cc1)NC(=O)CC(c1cccc(-n3ccnc3)c1)=N2 [Example 57, 8-(4-Fluoro-phenyl)-4-(3-imidazol-1-yl-phenyl)-7-(2-methoxy-ethoxy)-1,3-dihydro-benzo[b][1,4]diazepin-2-one]	196 to 197 °C
O=C1CC(c2cccc(-n3ccnc3)c2)=Nc2cc(OCCO)c(-c3ccc(F)cc3)cc2N1 [Example 58, 8-(4-Fluoro-phenyl)-7-(2-hydroxy-ethoxy)-4-(3-imidazol-1-yl-phenyl)-1,3-dihydro-benzo[b][1,4]diazepin-2-one]	225 °C
O=C1CC(c2cccc(-n3ccnc3)c2)=Nc2cc(N3CCOC3=O)c(-c3ccc(F)cc3)cc2N1 [Example 59, 8-(4-Fluoro-phenyl)-4-(3-imidazol-1-yl-phenyl)-7-(2-oxo-oxazolidin-3-yl)-1,3-dihydro-benzo[b][1,4]diazepin-2-one]	230 °C
COc1cc2c(cc1-c1ccc(F)cc1C)NC(=O)CC(c1cccc(-n3ccnc3)c1)=N2 [Example 60, 8-(4-Fluoro-2-methyl-phenyl)-4-(3-imidazol-1-yl-phenyl)-7-methoxy-1,3-dihydro-benzo[b][1,4]diazepin-2-one]	225 °C
O=C1CC(c2cccc(-n3ccnc3)c2)=Nc2cc(N3CC[C@@H](O)C3)c(-c3ccc(F)cc3)cc2N1 [Example 63, 8-(4-Fluoro-phenyl)-7-((R)-3-hydroxy-pyrrolidin-1-yl)-4-(3-imidazol-1-yl-phenyl)-1,3-dihydro-benzo[b][1,4]diazepin-2-one]	155 to 158 °C
COc1cc2c(cc1-c1ccccc1F)NC(=O)CC(c1cccc(-n3ccnc3)c1)=N2 [Example 64, 8-(2-Fluoro-phenyl)-4-(3-imidazol-1-yl-phenyl)-7-methoxy-1,3-dihydro-benzo[b][1,4]diazepin-2-one]	216 °C (dec.)
N#Cc1cccc(C2=Nc3cc(O)c(-c4ccc(F)cc4)cc3NC(=O)C2)c1 [Example 65, 3-[7-(4-Fluoro-phenyl)-8-hydroxy-4-oxo-4,5-dihydro-3H-benzo[b][1,4]diazepin-2-yl]-benzonitrile]	> 250 °C
N#Cc1cccc(C2=Nc3cc(O)c(-c4ccccc4F)cc3NC(=O)C2)c1 [Example 66, 3-[7-(2-Fluoro-phenyl)-8-hydroxy-4-oxo-4,5-dihydro-3H-benzo[b][1,4]diazepin-2-yl]-benzonitrile]	> 250 °C
COc1cc2c(cc1-c1ccccc1F)NC(=O)CC(c1cccc(C#N)c1)=N2 [Example 67, 3-[7-(2-Fluoro-phenyl)-8-methoxy-4-oxo-4,5-dihydro-3H-benzo[b][1,4]diazepin-2-yl]-benzonitrile]	245 to 247 °C
COc1cc2c(cc1-c1ccccc1F)NC(=O)CC(c1cccc(-n3cnnc3)c1)=N2 [Example 70, 8-(2-Fluoro-phenyl)-7-methoxy-4-(3-[1,2,4]triazol-4-yl-phenyl)-1,3-dihydro-benzo[b][1,4]diazepin-2-one]	188 °C (dec.)
COc1cc2c(cc1-c1ccccc1F)NC(=O)CC(c1cc(C#N)ccc1F)=N2 [Example 73, 4-Fluoro-3-[7-(2-fluoro-phenyl)-8-methoxy-4-oxo-4,5-dihydro-3H-benzo[b][1,4]diazepin-2-yl]-benzonitrile]	> 250 °C
N#Cc1cc(C2=Nc3cc(O)c(-c4ccc(F)cc4)cc3NC(=O)C2)ccn1 [Example 74, 4-[7-(4-Fluoro-phenyl)-8-hydroxy-4-oxo-4,5-dihydro-3H-benzo[b][1,4]diazepin-2-yl]-pyridine-2-carbonitrile]	164 °C
N#Cc1cccc(C2=Nc3cc(N4CCC5(CC4)OCCO5)c(-c4ccccc4F)cc3NC(=O)C2)c1 [Example 76, 3-[8-(1,4-Dioxa-8-aza-spiro[4.5]dec-8-yl)-7-(2-fluoro-phenyl)-4-oxo-4,5-dihydro-3H-benzo[b][1,4]diazepin-2-yl]-benzonitrile]	253 °C
O=C1CC(c2cccc(-n3ccnc3)c2)=Nc2cc(N3CCC4(CC3)OCCO4)c(-c3ccccc3F)cc2N1 [Example 77, 7-(1,4-Dioxa-8-aza-spiro[4.5]dec-8-yl)-8-(2-fluoro-phenyl)-4-(3-imidazol-1-yl-phenyl)-1,3-dihydro-benzo[b][1,4]diazepin-2-one]	225 °C
O=C1CCN(c2cc3c(cc2-c2ccccc2F)NC(=O)CC(c2cccc(-n4ccnc4)c2)=N3)CC1 [Example 78, 8-(2-Fluoro-phenyl)-4-(3-imidazol-1-yl-phenyl)-7-(4-oxo-piperidin-1-yl)-1,3-dihydro-benzo[b][1,4]diazepin-2-one]	230 °C
N#Cc1cc(C2=Nc3cc(O)c(-c4ccccc4F)cc3NC(=O)C2)ccn1 [Example 80, 4-[7-(2-Fluoro-phenyl)-8-hydroxy-4-oxo-4,5-dihydro-3H-benzo[b][1,4]diazepin-2-yl]-pyridine-2-carbonitrile]	> 250 °C
COc1cc2c(cc1-c1cc(F)ccc1F)NC(=O)CC(c1cccc(C#N)c1)=N2 [Example 82, 3-[7-(2,5-Difluoro-phenyl)-8-methoxy-4-oxo-4,5-dihydro-3H-benzo[b][1,4]diazepin-2-yl]-benzonitrile]	251 °C
N#Cc1ccsc1C1=CC(=O)Nc2cc(-c3ccccc3F)c(O)cc2N1 [Example 84, 2-[7-(2-Fluoro-phenyl)-8-hydroxy-4-oxo-4,5-dihydro-1H-benzo[b][1,4]diazepin-2yl]-thiophene-3-carbonitrile]	242 °C
O=C1CC(c2cccc(-n3ccnn3)c2)=Nc2cc(O)c(-c3ccc(F)cc3)cc2N1 [Example 86, 8-(4-Fluoro-phenyl)-7-hydroxy-4-(3-[1,2,3]triazol-1-yl-phenyl)-1,3-dihydro-benzo[b][1,4]diazepin-2-one]	> 250 °C
COCCOc1cc2c(cc1-c1ccccc1F)NC(=O)CC(c1cccc(C#N)c1)=N2 [Example 87, 3-[7-(2-Fluoro-phenyl)-8-(2-methoxy-ethoxy)-4-oxo-4,5-dihydro-3H-benzo[b][1,4]diazepin-2-yl]-benzonitrile]	211 to 213 °C
N#Cc1cccc(C2=Nc3cc(CO)c(-c4ccccc4F)cc3NC(=O)C2)c1 [Example 88, 3-[7-(2-Fluoro-phenyl)-8-hydroxymethyl-4-oxo-4,5-dihydro-3H-benzo[b][1,4]diazepin-2-yl]-benzonitrile]	90 to 91 °C
O=C1CC(c2cccc(-n3ccnn3)c2)=Nc2cc(O)c(C#Cc3ccc(F)cc3)cc2N1 [Example 92, 8-(4-Fluoro-phenylethynyl)-7-hydroxy-4-(3-[1,2,3]triazol-1-yl-phenyl)-1,3-dihydro-benzo[b][1,4]diazepin-2-one]	243 °C
COCCOc1cc2c(cc1C#Cc1ccccc1)NC(=O)CC(c1cccc(C(N)=O)c1)=N2 [Example 95, 3-[8-(2-Methoxy-ethoxy)-4-oxo-7-phenylethynyl-4,5-dihydro-3H-benzo[b][1,4]diazepin 2-yl]-benzamide]	227 to 230 °C (dec.)

From US6407094B1, “Glutamate receptor antagonists” (Hoffmann-la Roche Inc., priority 1999, dated 2002)
